Residue numbers refer to the chain shown, from its start.

What all share (conditions): at 1 µM
In assay [1] the test system is T1, Receptor-type tyrosine-protein kinase FLT3 (Homo sapiens), P36888 [D835H].
T1 sequence (whole entry): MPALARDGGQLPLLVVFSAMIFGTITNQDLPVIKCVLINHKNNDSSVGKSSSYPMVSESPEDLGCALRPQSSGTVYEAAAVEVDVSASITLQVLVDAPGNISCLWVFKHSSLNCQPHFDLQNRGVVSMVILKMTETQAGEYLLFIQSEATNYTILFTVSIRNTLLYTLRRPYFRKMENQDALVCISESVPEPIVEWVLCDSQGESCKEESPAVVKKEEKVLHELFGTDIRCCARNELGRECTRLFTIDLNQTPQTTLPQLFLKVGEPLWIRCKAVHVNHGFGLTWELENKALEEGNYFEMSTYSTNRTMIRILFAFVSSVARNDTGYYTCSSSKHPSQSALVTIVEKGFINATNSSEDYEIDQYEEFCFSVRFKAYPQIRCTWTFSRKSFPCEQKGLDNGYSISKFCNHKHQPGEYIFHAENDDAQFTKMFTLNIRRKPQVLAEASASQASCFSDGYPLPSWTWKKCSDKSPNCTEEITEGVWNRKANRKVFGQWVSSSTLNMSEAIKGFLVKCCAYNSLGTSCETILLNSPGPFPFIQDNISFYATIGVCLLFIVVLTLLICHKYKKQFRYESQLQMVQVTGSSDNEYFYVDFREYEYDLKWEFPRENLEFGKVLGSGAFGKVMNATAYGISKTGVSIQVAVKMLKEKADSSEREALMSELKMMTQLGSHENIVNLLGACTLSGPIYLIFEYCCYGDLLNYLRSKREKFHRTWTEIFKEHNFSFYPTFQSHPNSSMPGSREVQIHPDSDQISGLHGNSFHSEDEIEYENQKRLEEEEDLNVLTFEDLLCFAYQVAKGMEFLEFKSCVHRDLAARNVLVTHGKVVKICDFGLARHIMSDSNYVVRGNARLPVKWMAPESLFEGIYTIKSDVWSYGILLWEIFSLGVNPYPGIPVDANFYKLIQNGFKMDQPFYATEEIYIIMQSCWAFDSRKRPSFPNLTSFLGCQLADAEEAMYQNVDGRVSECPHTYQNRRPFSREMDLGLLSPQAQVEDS
As to the kind of experiment: (§1) Selectivity interaction (KinomeScan (DiscoverX)) EUB0000311b FLT3.

The test system of assay [2] is T2, Receptor-type tyrosine-protein kinase FLT3 (Homo sapiens), P36888 [D835V].
T2 sequence (whole entry): T1 sequence (whole entry) with H835V
The description is as §1.

Assay [3] has as its system T3, Receptor-type tyrosine-protein kinase FLT3 (Homo sapiens), P36888 [N841I].
T3 sequence (whole entry): T1 sequence (whole entry) with H835D, N841I
The description is as §1.

The subject of assay [4] is Receptor-type tyrosine-protein kinase FLT3 (Homo sapiens), P36888 [UNDEFINED MUTATION]. The assay is described as §1.

Turning to `CCc1ccccc1C(=O)Nc1n[nH]c2c(C)c(F)c(C3C(C#N)=C(C)N(C)C(C)=C3C#N)cc12` [BAY-3827], the % of control in assay [1] came out at 16%; in assay [2], 3.2%; in assay [3], 0%; in assay [4], 11%.

These data come from ChEMBL document CHEMBL5465560, “Selectivity Literature for EUbOPEN Chemogenomic Library” (2024).
